Experimental data as given in patent publication US20070003531A1, “Methods for improving immunotherapy by enhancing survival of antigen-specific cytotoxic T lymphocytes” (University of Connecticut, priority 2005, published 2007).
Entries after “also recorded” stand apart in the source; their conditions may differ.

Experiments:
Assay type in all cases: cell-based, human
[1] = system: c-Jun phosphorylation (JNK activation) in CTL; experiment: c-Jun phosphorylation in CTL during AICD (immunoblot); details: CTL re-stimulated with Mart-127-35 peptide after pre-incubation
Description: FIG. 1. […] (A) Effect of the JNK inhibitor SP600125 on AICD in the MART-127-35 epitope specific CTL. Histogram represents FACS analysis of the percent of MART-127-35 epitope specific CTLs that were tetramer positive and annexin negative after restimulation with MAGE-3271-279 control peptide (M3) pulsed T2 cells or MART-127-35 peptide (M1) pulsed T2 cells either alone or re-stimulated after pre-incubation with JNK inhibitor SP600125, p38-kinase inhibitor SB203580, ERK1/2 inhibitor PD98059 or caspase-inhibitor z-VAD-fink. MAGE-3271-279. (B) JNK activation results in phosphorylation of c-Jun during AICD in CTL that is blocked by SP600125. […] (i) Jurkat cells were treated with PMA+ionomycin in the absence or presence of SP600125 and JNK activation (c-Jun phosphorylation) was assessed with anti-phospho-c-Jun antibody. […] (ii) Jurkat cells were treated with Staurosporine for 1 and 4 hrs in the absence (S) or presence of caspase inhibitor, z-VAD-fmk (CI), JNK inhibitor, SP600125 (SP) or ERK1/2 inhibitor PD98059 (PD) and cleavage of PARP was detected by immunoblotting, using actin as a loading control. […] Percent annexin positive cells in all samples were quantified by FACS analysis and shown below the blot
Immunoblot analysis. […] Proteins bound to the resin were washed three times with RIPA buffer, re-suspended in sample buffer, and analyzed by SDS-PAGE and immunoblotting.

[2] = system: AIF translocation in MART-127-35 specific CTL; experiment: Mitochondrio-nuclear translocation/release of AIF in CTL during AICD; details: CTL restimulated by cognate epitope
Source text: (§1) FIG. 14. Nuclear translocation of AIF and effect of SP600125 on the AIF release and such translocation. The MART-1 epitope specific CTLs generated in the in vitro CTL generation protocol were restimulated by the cognate epitope or a control epitope in the presence or absence of the JNK inhibitor SP600125. (A) Western blot of heavy membrane faction (HM) and cytosolic fraction (S-100) of control CTL (C) and CTLs restimulated by the cognate peptide (M1). As shown, AIF is released in the cytosol of CTLs encountering the cognate peptide without any release of cytochrome c. (B) Effect of SP600125 on AIF release in CD3 induced AICD in Jurkat cells. As shown, AIF is released without cytochrome c release in these cells and SP600125 interferes with the AIF release. (C) Densitometric analysis of the SP600125 effect on AIF release.
Sub-cellular Fractionation. Sub-cellular fractionation was done according to Gross, et al., with minor modifications. Heavy membrane and light membrane fractions were solublized in RIPA buffer supplemented with protease inhibitors and the proteins extracted from heavy membrane (HM), light membrane (LM) and supernatant (S-100) fractions were analyzed by immuno-blot analysis.
Immunofluorescence microscopy. […] The cells were fixed with 4% para-formaldehyde in PBS and stained with appropriate antibodies for co-localization of proteins by fluorescence microscopy. […]

[3] = system: AIF release in Jurkat cells; experiment: AIF release in CD3 induced AICD in Jurkat cells
Source text: as §1

[4] = system: Bcl family proteins in CTL; experiment: Western blot of Bcl family pro- and anti-apoptotic proteins in CTL after secondary stimulation
Description: FIG. 12. Effect of antigen specific secondary stimulation on mitochondrial transmembrane membrane potential (Δψm), pro- and anti-apoptotic protein and expression of cell surface molecules. (A) Differential effect on membrane polarization in Mart-1 primary CTLs (top panel) vs. Jurkat T cells (bottom panel). CTLs were incubated with T2 cells either alone or loaded with peptide. After overnight secondary exposure cells were stained with Mart-1 tetramer/CD8 and DiOC6. Histogram represents the fluorescence of DiOC6 in the gated antigen specific tetramer^+ population (top panel). Jurkat T cells were also analyzed for modulation of membrane potential after TCR-driven stimulation (bottom panel). Values represent the mean±SD of fluorescence intensity triplicates from one out of three separate experiment. *p<0.001 (One Way ANOVA). […] (C) Expression of different cell surface receptors for survival or death signal in antigen specific population upon secondary stimulation. Values on left upper corner represent the geometric mean of the fluorescence intensity for that particular marker when stimulated with T2/MAGE-3271-279 while that on right upper corner represent the geometric mean of the fluorescence intensity when stimulated with T2/MART-127-35.
Washed cell pellets were lysed in RIPA buffer and a cytosolic fraction was prepared by spinning the lysate at 15,000 rpm. Proteins (20 μg/well) were separated on 15% SDS-PAGE, transferred onto nitrocellulose filters, probed with appropriate antibodies. Antibodies for Bcl-2, phospho Bcl-2, Bim, BCI-XL, Bax, Actin were purchased from Santa-Cruz Biotechnology, Santa-Cruz, Calif. Anti-Mcl-1 antibody was purchased from BD Pharmingen, Palo Alto, Calif. Blots were developed by HRP-tagged secondary antibody (Santa-Cruz Biotechnology, Santa-Cruz, Calif.) using a chemoluminescence kit (Amersham Biosciences, Buckinghamshire, U. K.).

Which results are given for `O=C1c2ccccc2-c2n[nH]c3cccc1c23` [SP600125, anthra[1,9-cd]pyrazol-6(2H)-one]?
c-Jun activation (phosphorylation) in CTL during AICD [1]: blocked; mitochondrio-nuclear translocation/release of AIF in CTL [2]: blocks; also recorded: blocking effect; AIF release in Jurkat cells [3]: interferes; BCI-XL expression [4]: non-selectively up regulated; Bcl-2 expression [4]: non-selectively up regulated; Mcl-1 level [4]: selectively up regulated; also recorded: increased; phosphorylated Bcl-2 level [4]: selectively up regulated; also recorded: increased
